For 27 molecules, EC30 results are on record in patent publication US10758534B2 (Vertex Pharmaceuticals Incorporated, priority 2014, dated 2020).

The target in the assay is T1, F508del (Homo sapiens, UniProt P13569, DEL508-508).
T1 construct: expressed in transfected cells
The assay is described as follows: Protocol 1: membrane potential optical assay (FLIPR III, voltage sensing dye), identification of potentiator compounds. The class given is cell-based. The note with it: Table 3, compounds of Table 1. The gist of the method:
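Membrane potential in forskolin-activated, temperature-rescued F508del NIH 3T3 cells is followed with a voltage-sensing dye on FLIPR III. A chloride ion gradient created at the single addition step provides the driving force, after prior compound treatment.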

T1 sequence (P13569 with tags, fused parts or gaps DEL508-508): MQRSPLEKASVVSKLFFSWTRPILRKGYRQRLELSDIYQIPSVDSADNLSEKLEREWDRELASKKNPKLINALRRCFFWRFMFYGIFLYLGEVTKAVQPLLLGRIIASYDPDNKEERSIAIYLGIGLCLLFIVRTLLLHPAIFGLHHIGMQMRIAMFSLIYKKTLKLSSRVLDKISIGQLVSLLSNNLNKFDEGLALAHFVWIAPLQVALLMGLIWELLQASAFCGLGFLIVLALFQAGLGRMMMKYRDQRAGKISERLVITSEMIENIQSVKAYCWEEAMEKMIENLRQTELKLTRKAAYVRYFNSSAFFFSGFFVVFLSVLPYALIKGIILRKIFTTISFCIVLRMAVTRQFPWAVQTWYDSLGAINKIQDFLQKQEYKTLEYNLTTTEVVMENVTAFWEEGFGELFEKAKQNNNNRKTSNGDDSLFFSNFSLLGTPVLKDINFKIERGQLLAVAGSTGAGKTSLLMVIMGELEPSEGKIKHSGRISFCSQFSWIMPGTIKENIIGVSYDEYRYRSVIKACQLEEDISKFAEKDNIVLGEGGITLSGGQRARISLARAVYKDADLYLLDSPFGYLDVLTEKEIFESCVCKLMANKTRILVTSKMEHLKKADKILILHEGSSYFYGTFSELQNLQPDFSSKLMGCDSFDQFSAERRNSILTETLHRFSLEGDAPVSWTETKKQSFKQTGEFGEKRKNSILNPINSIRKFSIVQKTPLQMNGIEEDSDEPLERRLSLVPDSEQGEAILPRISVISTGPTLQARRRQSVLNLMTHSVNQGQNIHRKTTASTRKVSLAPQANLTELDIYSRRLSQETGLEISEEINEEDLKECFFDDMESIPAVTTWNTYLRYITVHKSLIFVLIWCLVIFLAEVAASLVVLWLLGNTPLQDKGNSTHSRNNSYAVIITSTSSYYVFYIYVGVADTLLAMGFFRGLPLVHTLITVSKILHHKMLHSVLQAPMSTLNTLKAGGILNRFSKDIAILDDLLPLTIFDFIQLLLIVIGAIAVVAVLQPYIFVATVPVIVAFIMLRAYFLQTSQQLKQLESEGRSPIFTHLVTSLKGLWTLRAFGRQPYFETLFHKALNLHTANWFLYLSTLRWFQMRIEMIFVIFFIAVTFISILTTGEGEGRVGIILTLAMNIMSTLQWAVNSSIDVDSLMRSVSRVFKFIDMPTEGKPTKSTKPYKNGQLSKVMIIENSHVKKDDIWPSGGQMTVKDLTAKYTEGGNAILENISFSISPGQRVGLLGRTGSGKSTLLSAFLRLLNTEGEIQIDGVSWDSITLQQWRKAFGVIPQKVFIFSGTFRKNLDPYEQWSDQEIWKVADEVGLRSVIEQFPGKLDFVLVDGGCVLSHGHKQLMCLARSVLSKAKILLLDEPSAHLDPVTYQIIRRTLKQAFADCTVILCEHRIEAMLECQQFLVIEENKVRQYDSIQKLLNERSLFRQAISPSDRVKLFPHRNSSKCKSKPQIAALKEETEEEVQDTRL

As for `CC(C)(C)c1ccc(C(=O)NS(=O)(=O)c2ccc(N)cc2)c(C2=CCCCC2)n1` [Compound 880, N-(4-aminophenyl)sulfonyl-6-tert-butyl-2-(cyclohexen-1-yl)pyridine-3-carboxamide], the EC30 entry is “++ (“++” means between 3 uM and 10 uM)”.
For the molecule `Cc1cc(-c2ccc(C(=O)NS(=O)(=O)c3cccc(N)n3)c(N3C[C@@H](C)CC3(C)C)n2)cnc1OCCOCCOCCOC(C)C` [Compound 1787, N-[(6-amino-2-pyridyl)sulfonyl]-6-[6-[2-[2-(2-isopropoxyethoxy)ethoxy]ethoxy]-5-methyl-3-pyridyl]-2-[(4S)-2,2,4-trimethylpyrrolidin-1-yl]pyridine-3-carboxamide], the EC30 entry is “++ (“++” means between 3 uM and 10 uM)”.
As to `Cc1ccc(-c2nc(C(C)(C)C)ccc2C(=O)NS(=O)(=O)c2cccc(O)c2)cc1` [Compound 1265, 6-tert-butyl-N-(3-hydroxyphenyl)sulfonyl-2-(p-tolyl)pyridine-3-carboxamide], the EC30 entry was “++ (“++” means between 3 uM and 10 uM)”.
On to `Cc1cc(OCCOC(C)C)nc(-c2ccc(C(=O)NS(=O)(=O)c3cccc(N)n3)c(N3C[C@@H](C)CC3(C)C)n2)c1` [Compound 1703, N-[(6-amino-2-pyridyl)sulfonyl]-6-[6-(2-isopropoxyethoxy)-4-methyl-2-pyridyl]-2-[(4S)-2,2,4-trimethylpyrrolidin-1-yl]pyridine-3-carboxamide], for which the EC30 entry was “+++ (“+++” means <3 uM)”.
For `CC(C)COc1cc(F)cc(-c2ccc(C(=O)NS(=O)(=O)c3cccc(N)n3)c(N3CC(C)CCC3C)n2)c1` (single isomer, unassigned) [Compound 1855, N-[(6-amino-2-pyridyl)sulfonyl]-2-(2,5-dimethyl-1-piperidyl)-6-(3-fluoro-5-isobutoxy-phenyl)pyridine-3-carboxamide] the value was “+++ (“+++” means <3 uM)”; for `CCOc1cccc2c1CN(Cc1c(C)cc(C)cc1C)C2(C)C(=O)NS(=O)(=O)c1ccc(Cl)c(N)c1` (stereo not drawn) [Compound 1587, N-(3-amino-4-chloro-phenyl)sulfonyl-4-ethoxy-1-methyl-2-[(2,4,6-trimethylphenyl)methyl]isoindoline-1-carboxamide], “+++ (“+++” means <3 uM)”; for `CC(C)COc1cc(-c2ccc(C(=O)NS(=O)(=O)c3cccc(N)n3)c(N3C[C@@H](C)CC3(C)C)n2)ccn1` [Compound 1618, N-[(6-amino-2-pyridyl)sulfonyl]-6-(2-isobutoxy-4-pyridyl)-2-[(4S)-2,2,4-trimethylpyrrolidin-1-yl]pyridine-3-carboxamide], “+++ (“+++” means <3 uM)”.
As to `Cc1cc(C)c(Oc2nc(C3CC4CCC3(C)C4(C)C)ccc2C(=O)NS(=O)(=O)c2cccc(N)n2)c(C)c1` (stereo not drawn) [Compound 1650, N-[(6-amino-2-pyridyl)sulfonyl]-6-(1,7,7-trimethylnorbornan-2-yl)-2-(2,4,6-trimethylphenoxy)pyridine-3-carboxamide], the EC30 result is on record as “+++ (“+++” means <3 uM)”.
Consider `Cc1cc(C)c(Oc2nc(-c3cccc(Cl)c3)ccc2C(=O)NS(=O)(=O)c2cccc(N)n2)c(C)c1` [Compound 1295, N-[(6-amino-2-pyridyl)sulfonyl]-6-(3-chlorophenyl)-2-(2,4,6-trimethylphenoxy)pyridine-3-carboxamide], for which the EC30 result is “+++ (“+++” means <3 uM)”.
Consider `Cc1ccc(-c2nc(C(C)(C)C)ccc2C(=O)NS(=O)(=O)c2ccccc2O)cc1` [Compound 1175, 6-tert-butyl-N-(2-hydroxyphenyl)sulfonyl-2-(p-tolyl)pyridine-3-carboxamide], for which the EC30 entry is given as “+++ (“+++” means <3 uM)”.
For `CC(C)COc1cc(F)cc(-c2ccc(C(=O)NS(=O)(=O)c3cccc(CO)n3)c(N3CCC(C)CC3)n2)c1` [Compound 1340, 6-(3-fluoro-5-isobutoxy-phenyl)-N-[[6-(hydroxymethyl)-2-pyridyl]sulfonyl]-2-(4-methyl-1-piperidyl)pyridine-3-carboxamide] the value was “+++ (“+++” means <3 uM)”.
Turning to `CC(C)COc1cc(F)cc(-c2ccc(C(=O)NS(=O)(=O)c3cccc(N)n3)c(OC(C)Cc3ccccc3)n2)c1` (stereo not drawn) [Compound 967, N-[(6-amino-2-pyridyl)sulfonyl]-6-(3-fluoro-5-isobutoxy-phenyl)-2-(1-methyl-2-phenyl-ethoxy)pyridine-3-carboxamide], the EC30 result is given as “+++ (“+++” means <3 uM)”.
For `CC1CN(c2nc(C(C)(C)C)c(C#N)cc2C(=O)NS(=O)(=O)c2cccc(N)n2)C(C)(C)C1` (stereo not drawn) [Compound 1419, N-[(6-amino-2-pyridyl)sulfonyl]-6-tert-butyl-5-cyano-2-(2,2,4-trimethylpyrrolidin-1-yl)pyridine-3-carboxamide] the value was “+++ (“+++” means <3 uM)”; for `Cc1ccc(CNc2cccc(S(=O)(=O)NC(=O)c3cccnc3N3CC(C)CC3(C)C)n2)cc1` (stereo not drawn) [Compound 1892, N—[[6-(p-tolylmethylamino)-2-pyridyl]sulfonyl]-2-(2,2,4-trimethylpyrrolidin-1-yl)pyridine-3-carboxamide], “+++ (“+++” means <3 uM)”; for `CC(C)COc1cc(F)cc(-c2ccc(C(=O)NS(=O)(=O)c3cccc(N)n3)c(OCCCCc3ccccc3)n2)c1` [Compound 1686, N-[(6-amino-2-pyridyl)sulfonyl]-6-(3-fluoro-5-isobutoxy-phenyl)-2-(4-phenylbutoxy)pyridine-3-carboxamide], “+++ (“+++” means <3 uM)”.
For `Cc1nccc(-c2cccc(S(=O)(=O)NC(=O)c3cc(C(C)(C)C)nn3Cc3c(C)cccc3C)c2)n1` [Compound 1496, 5-tert-butyl-2-[(2,6-dimethylphenyl)methyl]-N-[3-(2-methylpyrimidin-4-yl)phenyl]sulfonyl-pyrazole-3-carboxamide], the EC30 entry is “+++ (“+++” means <3 uM)”.
For `CCOc1cc(F)cc(-c2ccc(C(=O)NS(=O)(=O)c3ccc[nH]c3=O)c(Oc3c(C)cc(C)cc3C)n2)c1` [Compound 835, 6-(3-ethoxy-5-fluoro-phenyl)-N-[(2-oxo-1H-pyridin-3-yl)sulfonyl]-2-(2,4,6-trimethylphenoxy)pyridine-3-carboxamide] the value was “++ (“++” means between 3 uM and 10 uM)”.
With `COc1ccc(-c2ccc(C(=O)NS(=O)(=O)c3cccc(N)n3)c(Oc3c(C)cc(C)cc3C)n2)c(OC)c1` [Compound 950, N-[(6-amino-2-pyridyl)sulfonyl]-6-(2,4-dimethoxyphenyl)-2-(2,4,6-trimethylphenoxy)pyridine-3-carboxamide] the entry was “+++ (“+++” means <3 uM)”.
With `CC(C)COc1cc(F)cc(-c2ccc(C(=O)NS(=O)(=O)c3cccc(N)c3)c(N3CCC(C)(C)CC3)n2)c1` [Compound 1014, N-(3-aminophenyl)sulfonyl-2-(4,4-dimethyl-1-piperidyl)-6-(3-fluoro-5-isobutoxy-phenyl)pyridine-3-carboxamide] the entry was “+++ (“+++” means <3 uM)”; with `CCC(Oc1nc(-c2cc(F)cc(OCC(C)C)c2)ccc1C(=O)NS(=O)(=O)c1cccc(N)n1)C1CC1(C)C` (stereo not drawn) [Compound 1639, N-[(6-amino-2-pyridyl)sulfonyl]-2-[1-(2,2-dimethylcyclopropyl)propoxy]-6-(3-fluoro-5-isobutoxy-phenyl)pyridine-3-carboxamide], “+++ (“+++” means <3 uM)”.
Take `CC(C)=Cc1cc(C(=O)NS(=O)(=O)c2cccc(N)n2)c(N2CC(C)CC2(C)C)nc1C(C)(C)C` (stereo not drawn) [Compound 1561, N-[(6-amino-2-pyridyl)sulfonyl]-6-tert-butyl-5-(2-methylprop-1-enyl)-2-(2,2,4-trimethylpyrrolidin-1-yl)pyridine-3-carboxamide]: the EC30 result is on record as “+++ (“+++” means <3 uM)”.
With `Cc1cc(C)c(Oc2nc(-c3cccc(C(C)C)c3)ccc2C(=O)NS(=O)(=O)c2cccc(N)n2)c(C)c1` [Compound 1016, N-[(6-amino-2-pyridyl)sulfonyl]-6-(3-isopropylphenyl)-2-(2,4,6-trimethylphenoxy)pyridine-3-carboxamide] the entry was “+++ (“+++” means <3 uM)”; with `C[C@@H]1CN(c2nc(/C=C/C3CC3)ccc2C(=O)NS(=O)(=O)c2cccc(N)n2)C(C)(C)C1` [Compound 1379, N-[(6-amino-2-pyridyl)sulfonyl]-6-[(E)-2-cyclopropylvinyl]-2-[(4S)-2,2,4-trimethylpyrrolidin-1-yl]pyridine-3-carboxamide], “+++ (“+++” means <3 uM)”.
For `CC(C)COc1cc(F)cc(-c2ccc(C(=O)NS(=O)(=O)c3cccc(N)n3)c(-n3nc(C(C)C)cc3C(C)C)n2)c1` [Compound 1387, N-[(6-amino-2-pyridyl)sulfonyl]-2-(3,5-diisopropylpyrazol-1-yl)-6-(3-fluoro-5-isobutoxy-phenyl)pyridine-3-carboxamide] the value was “+++ (“+++” means <3 uM)”; for `COc1cccc(F)c1-c1ccc(C(=O)NS(=O)(=O)c2cccc(N)n2)c(Oc2c(C)cc(C)cc2C)n1` [Compound 920, N-[(6-amino-2-pyridyl)sulfonyl]-6-(2-fluoro-6-methoxy-phenyl)-2-(2,4,6-trimethylphenoxy)pyridine-3-carboxamide], “+++ (“+++” means <3 uM)”; for `CC(C)Oc1ccc(-c2nc(N3C[C@@H](C)CC3(C)C)ccc2C(=O)NS(=O)(=O)c2cccc(N)n2)cn1` [Compound 1436, N-[(6-amino-2-pyridyl)sulfonyl]-2-(6-isopropoxy-3-pyridyl)-6-[(4S)-2,2,4-trimethylpyrrolidin-1-yl]pyridine-3-carboxamide], “++ (“++” means between 3 uM and 10 uM)”.
For `CC(C)Oc1ccc(-c2ccc(C(=O)NS(=O)(=O)c3cccc(N)n3)c(N3C(C)CCC3(C)C)n2)cn1` (stereo not drawn) [Compound 1040, N-[(6-amino-2-pyridyl)sulfonyl]-6-(6-isopropoxy-3-pyridyl)-2-(2,2,5-trimethylpyrrolidin-1-yl)pyridine-3-carboxamide], the EC30 entry was “+++ (“+++” means <3 uM)”.
